In patent US10428060B2, “PI-kinase inhibitors with anti-infective activity” (The Board of Trustees of the Leland Stanford Junior …, priority 2011, dated 2019):

Key:
PI4KIIIB = biological target: T1, PI4KIIIB (Bos taurus, UniProt O02810); assay: PI4KIIIB kinase assay; type: biochemical, bovine
T1 construct: made in house; host or cells: COS-7 cells, transient transfection, anti-HA immunoprecipitate on protein G Sepharose beads

PI3K p110a = biological target: T2, PI3K p110a (Homo sapiens, UniProt P42336); assay: PI3K p110a kinase assay; type: biochemical
T2 construct: purchased Millipore
T2 sequence (P42336 whole entry): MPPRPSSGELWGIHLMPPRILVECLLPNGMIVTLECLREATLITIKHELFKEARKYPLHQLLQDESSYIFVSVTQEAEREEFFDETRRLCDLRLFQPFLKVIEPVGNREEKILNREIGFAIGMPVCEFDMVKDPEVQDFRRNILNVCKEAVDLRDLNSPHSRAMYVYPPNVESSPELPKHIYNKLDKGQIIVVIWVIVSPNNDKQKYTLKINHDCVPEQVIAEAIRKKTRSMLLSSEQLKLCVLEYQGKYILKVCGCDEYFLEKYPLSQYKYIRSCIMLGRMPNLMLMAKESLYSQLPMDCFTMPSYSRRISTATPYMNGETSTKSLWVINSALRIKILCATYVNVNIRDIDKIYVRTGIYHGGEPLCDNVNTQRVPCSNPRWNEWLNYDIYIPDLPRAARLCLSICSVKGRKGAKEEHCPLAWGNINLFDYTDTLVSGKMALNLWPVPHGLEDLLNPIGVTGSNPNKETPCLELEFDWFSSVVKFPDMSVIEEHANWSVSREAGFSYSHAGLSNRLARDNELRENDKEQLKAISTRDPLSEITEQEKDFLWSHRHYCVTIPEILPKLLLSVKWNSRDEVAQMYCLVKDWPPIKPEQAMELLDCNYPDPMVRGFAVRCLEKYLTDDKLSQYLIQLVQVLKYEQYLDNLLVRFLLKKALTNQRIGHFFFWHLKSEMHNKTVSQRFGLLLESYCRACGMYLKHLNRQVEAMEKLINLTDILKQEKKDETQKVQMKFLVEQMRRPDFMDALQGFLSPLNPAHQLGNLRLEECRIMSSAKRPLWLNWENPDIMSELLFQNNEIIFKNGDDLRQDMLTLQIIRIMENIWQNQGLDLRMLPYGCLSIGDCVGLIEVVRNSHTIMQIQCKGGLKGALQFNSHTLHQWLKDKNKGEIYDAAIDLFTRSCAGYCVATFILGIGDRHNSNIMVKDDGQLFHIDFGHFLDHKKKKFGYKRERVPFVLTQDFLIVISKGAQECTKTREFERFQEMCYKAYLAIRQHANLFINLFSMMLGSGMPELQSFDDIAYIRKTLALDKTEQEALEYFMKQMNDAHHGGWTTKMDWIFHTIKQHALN
T2 sequence (P27986 whole entry partner): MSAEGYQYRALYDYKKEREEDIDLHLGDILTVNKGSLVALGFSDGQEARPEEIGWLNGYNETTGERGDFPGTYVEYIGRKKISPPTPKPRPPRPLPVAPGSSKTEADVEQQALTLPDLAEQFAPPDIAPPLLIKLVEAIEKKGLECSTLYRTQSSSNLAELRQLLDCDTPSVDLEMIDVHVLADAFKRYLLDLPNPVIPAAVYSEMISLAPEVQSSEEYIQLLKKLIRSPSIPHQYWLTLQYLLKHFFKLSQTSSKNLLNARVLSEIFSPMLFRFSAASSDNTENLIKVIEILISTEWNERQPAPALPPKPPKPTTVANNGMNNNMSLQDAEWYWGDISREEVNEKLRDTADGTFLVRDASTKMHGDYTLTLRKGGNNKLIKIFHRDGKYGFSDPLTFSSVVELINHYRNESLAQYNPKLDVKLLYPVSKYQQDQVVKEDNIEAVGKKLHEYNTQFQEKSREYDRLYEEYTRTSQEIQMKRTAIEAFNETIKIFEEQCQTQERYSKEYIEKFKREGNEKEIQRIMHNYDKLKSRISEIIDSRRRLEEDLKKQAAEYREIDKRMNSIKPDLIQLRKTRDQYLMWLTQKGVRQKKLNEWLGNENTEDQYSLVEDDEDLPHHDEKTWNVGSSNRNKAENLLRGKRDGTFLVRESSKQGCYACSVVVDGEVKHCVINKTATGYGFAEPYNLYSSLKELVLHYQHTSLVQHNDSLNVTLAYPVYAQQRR
Protocol: In the assays described here, p110α-p85 complex and p110γ were acquired from Millipore. Assays were performed with Lα-phosphatidylinositol (Avanti) as described in Knight et al. Nat Protoc. […] Inhibitor series were prepared 10% DMSO as 5× stocks for the assay. […] COS-7 cells were cultured in 10 cm dishes and transfected at 70% confluence with 10 μg of plasmid DNA (HA-tagged bovine PI4KIIIβ, HA-tagged human PI4KIIIα) using Lipofectamine 2000 and 5 ml Opti-MEM following the manufacturer's instructions. After 5 hours the transfection medium was replaced with 10 ml complete DMEM. 36 hrs post transfection, cells were washed once with 5 ml PBS (pH 7.4) and lysed in 1 ml of lysis buffer (1) on ice. […] To the lysates was added 200 μl of protein G Sepharose 4 fast flow beads that were prewashed with PBS and lysis buffer and 2 μg of anti-HA antibody. The tubes were then incubated overnight at 4 degrees C. in a tube rotator. […] Kinase reactions were run in a mixture of 45 μL of PI buffer (1 mM PI in kinase buffer), 10 μL of immunoprecipitated beads, 2 µL of inhibitors (dissolved and diluted in DMSO) or DMSO and 5 μL of [γ-^32P]-ATP (1 mM and 2 μCi/tube). […] Samples were counted in a scintillation beta counter after adding 5 ml of Instafluor (Perkin-Elmer). […]

T1 sequence (O02810 whole entry): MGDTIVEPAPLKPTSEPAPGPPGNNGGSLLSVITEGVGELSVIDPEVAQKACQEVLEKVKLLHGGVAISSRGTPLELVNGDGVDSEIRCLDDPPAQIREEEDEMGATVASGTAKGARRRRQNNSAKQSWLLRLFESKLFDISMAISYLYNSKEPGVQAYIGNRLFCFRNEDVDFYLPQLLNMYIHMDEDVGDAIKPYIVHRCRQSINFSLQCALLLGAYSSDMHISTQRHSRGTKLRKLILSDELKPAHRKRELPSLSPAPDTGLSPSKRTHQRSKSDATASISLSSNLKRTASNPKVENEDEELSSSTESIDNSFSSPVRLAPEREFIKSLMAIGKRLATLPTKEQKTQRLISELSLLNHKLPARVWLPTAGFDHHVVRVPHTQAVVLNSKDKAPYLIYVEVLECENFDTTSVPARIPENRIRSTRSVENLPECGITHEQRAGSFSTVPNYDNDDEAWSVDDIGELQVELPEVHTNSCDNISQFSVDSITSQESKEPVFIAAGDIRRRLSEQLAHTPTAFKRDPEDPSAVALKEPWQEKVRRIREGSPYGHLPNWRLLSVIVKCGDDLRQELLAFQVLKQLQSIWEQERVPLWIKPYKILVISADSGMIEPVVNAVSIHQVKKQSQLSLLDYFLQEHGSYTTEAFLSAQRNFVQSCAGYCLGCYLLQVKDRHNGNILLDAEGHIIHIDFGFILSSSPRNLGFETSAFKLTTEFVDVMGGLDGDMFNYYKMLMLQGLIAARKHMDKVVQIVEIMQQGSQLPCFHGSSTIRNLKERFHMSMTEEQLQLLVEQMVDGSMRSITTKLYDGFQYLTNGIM

SMILES: COc1ncc(-c2sc(NC(=O)CC3CCOCC3)nc2C)cc1S(=O)(=O)NC1CCCC(O)C1 (centres unmarked) [Compound S-263]
- IC50 (PI4KIIIB): < 100 nM
- IC50 (PI3K p110a): 1000 to 10000 nM
